{"source": "patent US8486373B2", "about": "“Intramolecularly-quenched near infrared fluorescent probes” (The General Hospital Corporation, priority 1998, dated 2013)", "assay": "Properties of commercially-available near infrared fluorochromes", "assay_type": "physicochemical", "details": "Cy5.5 free in solution, FIG. 3A", "source_text": "Fluorescent probes with excitation and emission wavelengths in the near infrared spectrum are used, i.e., 650-1300 nm. Use of this portion of the electromagnetic spectrum maximizes tissue penetration and minimizes absorption by physiologically abundant absorbers such as hemoglobin (<650 nm) and water (>1200 nm). […] Table 1 summarizes information on the properties of six commercially-available near infrared fluorochromes, whose structures are shown in FIGS. 2A and 2B.", "data": [{"substance": "Cy5.5", "values": [{"measurement": "emission wavelength / peak emission", "value": 694, "unit": "nm"}]}]}
